Values quoted from earlier work as cited in patent publication US20080014156A1, “PHOTOPROTECTANT COMPOSITION FOR PREVENTING SUNBURN AND SUN DAMAGE TO THE SKIN” (priority 2006, published 2008).

Conditions: relative to vitamin E

For `CC1=C(/C=C/C(C)=C/C=C/C(C)=C/C=C/C=C(C)/C=C/C=C(C)/C=C/C2=C(C)C(=O)[C@@H](O)CC2(C)C)C(C)(C)C[C@H](O)C1=O` [Astaxanthin], the “antioxidant effectiveness compared with vitamin E” value is listed as “up to 550 times”.
